Earlier results on one compound are cited in patent publication US20260226377A1, “BIODEGRADABLE MICROCAPSULES CONTAINING LOW LOG P FRA-GRANCE” (priority 2023, published 2026).

The conditions of the series: octanol/water; source of values not stated (b29 refers to reported values, Pomona92 database).

Molecules are shown by their SMILES.

As for `O=Cc1ccccc1` [benzaldehyde], the logP value was 1.70.
